Measured values taken from patent US9856298B2 (priority 2011, dated 2018).
Values after ≈ are worked out from the molar mass of the structure shown. Like-named read-outs stand apart in the source and are kept apart here. Square brackets hold non-standard residues; d marks the D form. Primed or numbered codes have the meaning given here. Side chains are listed from the residue outwards. Peptide text beside a SMILES is read from it. * marks the point of attachment. Orn(α-tetramethylguanidino) = CN(C)C(=N[C@@H](CCCN)C(=O)*)N(C)C; Guan″ = guanidino group at the N-terminus, N=C(N)*; sPEG750 = PEG of 750 linked via acid group; Guan = N-guanidino (N-terminal), N=C(N)*; Hyp = O=C(O)[C@@H]1C[C@@H](O)CN1; Tle = CC(C)(C)[C@H](N)C(=O)O; Orn = NCCC[C@H](N)C(=O)O

Tests used:
[1] = system: Escherichia coli strain BL21AI; test: Minimum inhibitory concentration in TSB in the presence of 25% mouse serum; assay type: cell-based; conditions: E. coli BL21AI, TSB with 25% mouse serum, 20 hours at 37° C.
Experimental: (§1) To that end, the peptides were dissolved in water and diluted in a two-fold dilution series with 1% aqueous soybean medium (TSB) in sterile 96-well plates (Greiner Bio-One GmbH) from 128 μg/ml in twelve dilution steps to 62.5 ng/ml. Overnight cultures of Escherichia coli strain BL21AI were adjusted with 1% TSB to about […] colony forming units per ml. In each case 50 μl of peptide solution per well were then mixed with in each case 50 μl of the bacteria solution, in order to achieve a starting concentration of 4×10^5 bacteria per well. After incubation for 20 hours at 37° C., the absorption at 595 nm was determined (microplate reader, TECAN Trading AG).
In addition, the antibacterial activity was also determined in the presence of 25% mouse serum. To that end, the MIC values were determined as described above, but 25 μl of mouse serum were also added to each well before the incubation (25% final concentration).

[2] = system: Escherichia coli strain BL21AI; test: Minimum inhibitory concentration in 1% TSB; assay type: cell-based; conditions: for MIC in TSB: E. coli BL21AI, 1% TSB, 20 hours at 37° C.; for Effect of peptide linker or remaining linker residues on the MIC: compared with the unmodified peptide
Experimental: as §1

[3] = mouse; for uncleaved peptide remaining after the indicated time (instead of half-life): serum, 6 h, 15 µg/ml
Experimental: 30 μl of a 1 mg/ml peptide solution were diluted with 120 μl of water and, after addition of 50 of serum, incubated at 37° C. for 0 hours, 0.5 hour, 1 hour, 2 hours or 4 hours. Alternatively, the peptide derivatives having a starting concentration of 3 mg/ml were diluted with serum to a final concentration of 15 μg/ml. According to the stability of the peptides, the samples were analysed at the times mentioned above or after 0 hours, 4 hours and 6 hours. The serum proteins were precipitated by addition of 50 μl of 15% TCA, and the supernatant was neutralised with 25 μl of 1 mol/l NaOH. The samples were made up to 250 μl with 5% B, 230 μl of the solution were transferred into a HPLC vial, and 220 μl were injected.
RP-HPLC analysis was carried out with a linear acetonitrile gradient (Biosolve BV, Valkenswaard, Netherlands) in the presence of 0.1% trifluoroacetic acid (TFA, UV grade, Fluka Chemie GmbH, Buchs, Switzerland) as ion-pair reagent. The fractions were co-crystallised with α-cyanohydroxycinnamic acid (Bruker Daltonik GmbH; Bremen, Germany) as matrix (4 mg/ml in 60% acetonitrile in 0.1% aqueous TFA) and analysed with a tandem mass spectrometer (MALDI-TOF/TOF-MS, 4700 Proteomics Analyzer; Applied Biosystems GmbH, Weiterstadt, Germany) in positive-ion reflector mode. The amount of intact peptides and their degradation products or metabolites could thus be identified and quantified at the individual times. 25% aqueous mouse serum, which was analysed in parallel for the same time intervals, was used as control.

[4] = 25% aqueous mouse serum; conditions: 37° C., up to 6 hours
[5] = Serum stability / release of peptide in pure mouse serum (100%) (RP-HPLC, MALDI-MS)

Row | Compound | MIC in TSB/mouse serum [1] [µM] | MIC in TSB [2] [µM] | also measured
1 | CC[C@H](C)[C@H](NC(=O)[C@H](Cc1ccc(O)cc1)NC(=O)[C@@H](NC(=O)[C@@H]1CCCN1C(=O)[C@H](CCCNC(=N)N)NC(=O)[C@H](CC(N)=O)NC(=O)[C@H](CC(N)=O)NC(=O)[C@H](CCCN)N=C(N(C)C)N(C)C)C(C)C)C(=O)N1CCC[C@H]1C(=O)N[C@@H](CCCNC(=N)N)C(=O)N1CCC[C@H]1C(=O)N[C@@H](CCCNC(=N)N)C(=O)N1CCC[C@H]1C(=O)N1CCC[C@H]1C(=O)N[C@@H](Cc1c[nH]cn1)C(=O)N1CCC[C@H]1C(=O)N[C@@H](CCCNC(=N)N)C(=O)N[C@@H](CC(C)C)C(N)=O [Api 88, Guan-ONNRPVYIPRPRPPHPRL-NH2, reference compound] ({Orn(α-tetramethylguanidino)}-NNRPVYIPRPRPPHPRL-NH2) | 1.19 | 0.44 (≈ 1.01 µg/mL) | 
2 | Guan-OO(sPEG^750-GRSG)NRPVYIPRPRPPHPRL-OH (Guan-[Orn][Orn]NRPVYIPRPRPPHPRL-OH; not fully specified (residue 2)) [Api 300 (sPEG^750-GRSG)] | 0.37 | 2.9 | Half-life (t1/2) in serum [3]: 0.833 h
3 | Guan-O(sPEG^750-GRSG)NNRPVYIPRPRPPHPRL-OH |  |  | cleaved bond [4]: R-S
4 | H-GNNRPVYIPQPRPPHPRL-OH [Apidaecin 1b, reference compound] | 1.75 | 0.48 | 
5 | CC(C)C[C@H](NC(=O)[C@H](Cc1ccc(O)cc1)NC(=O)[C@@H]1CCCN1C(=O)[C@@H]1CCCN1C(=O)[C@H](CCCCN)NC(=O)[C@H](CC(=O)O)NC(=O)[C@@H](NC(=O)[C@H](CCCNC(=N)N)NC(=O)[C@H](C)NC(=O)CN)C(C)C)C(=O)N1CCC[C@H]1C(=O)N[C@@H](CCCNC(=N)N)C(=O)N1CCC[C@H]1C(=O)N[C@@H](CCCNC(=N)N)C(=O)N1CCC[C@H]1C(=O)N1C[C@H](O)C[C@H]1C(=O)N[C@@H](CCCNC(=N)N)C(=O)N1C[C@H](O)C[C@H]1C(=O)N[C@H](C(=O)N[C@@H](Cc1ccc(O)cc1)C(=O)N[C@@H](CC(N)=O)C(=O)N[C@@H](CCCN)C(N)=O)C(C)(C)C [GAR-Onc 110] (H-GARVDKPPYLPRPRP[Hyp]R[Hyp][Tle]YN[Orn]-NH2) | 0.65 | 1.5 (≈ 3.91 µg/mL) | remaining at 4 h, 15 µg/ml ([5]; mouse, pure (100%) mouse serum): 75%; Effect of peptide linker or remaining linker residues on the MIC [2]: does not increase the MIC or increases it only insignificantly
6 | sPEG^750-GAR-VDKPPYLPRPRPPROIYNO-NH2 (sPEG750-GARVDKPPYLPRPRPPR[Orn]IYN[Orn]-NH2) [sPEG^750-GAR-Onc 72] | 6.1 | 12.2 | Half-life (t1/2) in serum ([5]; pure mouse serum, 37° C.): 6 h
7 | CC[C@H](C)[C@H](NC(=O)[C@H](Cc1ccc(O)cc1)NC(=O)[C@@H](NC(=O)[C@@H]1CCCN1C(=O)[C@H](CCCNC(=N)N)NC(=O)[C@H](CC(N)=O)NC(=O)[C@H](CC(N)=O)NC(=O)[C@H](CCCN)N=C(N(C)C)N(C)C)C(C)C)C(=O)N1CCC[C@H]1C(=O)N[C@@H](CCCNC(=N)N)C(=O)N1CCC[C@H]1C(=O)N[C@@H](CCCNC(=N)N)C(=O)N1CCC[C@H]1C(=O)N1CCC[C@H]1C(=O)N[C@@H](Cc1c[nH]cn1)C(=O)N1CCC[C@H]1C(=O)N[C@@H](CCCN)C(=O)N[C@@H](CC(C)C)C(N)=O [Api 134, Guan-ONNRPVYIPRPRPPHPOL-NH2, reference compound] ({Orn(α-tetramethylguanidino)}-NNRPVYIPRPRPPHP[Orn]L-NH2) | 7.12 | 1.78 (≈ 4 µg/mL) | 
8 | CC[C@H](C)[C@H](NC(=O)[C@H](CCCN)NC(=O)[C@H](CCCNC(=N)N)NC(=O)[C@@H]1CCCN1C(=O)[C@@H]1CCCN1C(=O)[C@H](CCCNC(=N)N)NC(=O)[C@@H]1CCCN1C(=O)[C@H](CCCNC(=N)N)NC(=O)[C@@H]1CCCN1C(=O)[C@H](CC(C)C)NC(=O)[C@H](Cc1ccc(O)cc1)NC(=O)[C@@H]1CCCN1C(=O)[C@@H]1CCCN1C(=O)[C@H](CCCCN)NC(=O)[C@H](CC(=O)O)NC(=O)[C@@H](N)C(C)C)C(=O)N[C@@H](Cc1ccc(O)cc1)C(=O)N[C@@H](CC(N)=O)C(=O)N[C@@H](CCCN)C(N)=O [Onc 72, VDKPPYLPRPRPPROIYNO-NH2] (H-VDKPPYLPRPRPPR[Orn]IYN[Orn]-NH2) | 1.7 | 1.7 (≈ 3.92 µg/mL) | 
9 | CC[C@H](C)[C@H](NC(=O)[C@H](CCCN)NC(=O)[C@H](CCCNC(=N)N)NC(=O)[C@@H]1CCCN1C(=O)[C@@H]1CCCN1C(=O)[C@H](CCCNC(=N)N)NC(=O)[C@@H]1CCCN1C(=O)[C@H](CCCNC(=N)N)NC(=O)[C@@H]1CCCN1C(=O)[C@H](CC(C)C)NC(=O)[C@H](Cc1ccc(O)cc1)NC(=O)[C@@H]1CCCN1C(=O)[C@@H]1CCCN1C(=O)[C@H](CCCCN)NC(=O)[C@H](CC(=O)O)NC(=O)[C@@H](NC(=O)[C@H](CCCNC(=N)N)NC(=O)[C@H](C)NC(=O)CN)C(C)C)C(=O)N[C@@H](Cc1ccc(O)cc1)C(=O)N[C@@H](CC(N)=O)C(=O)N[C@@H](CCCN)C(N)=O [GAR-Onc 72, GAR-VDKPPYLPRPRPPROIYNO-NH2] (H-GARVDKPPYLPRPRPPR[Orn]IYN[Orn]-NH2) |  | 3.1 (≈ 8.03 µg/mL) | remaining at 4 h, 15 µg/ml ([5]; mouse, pure (100%) mouse serum): 85%; Effect of peptide linker or remaining linker residues on the MIC [2]: does not increase the MIC or increases it only insignificantly
10 | Guan-OO(sPEG^750-GARSG)NRPVYIPRPRPPHPRL-OH (Guan-[Orn][Orn]NRPVYIPRPRPPHPRL-OH; not fully specified (residue 2)) [Api 300 (sPEG^750-GARSG)] | 0.54 | 2.9 | Half-life (t1/2) in serum [3]: 0.583 h
11 | CC[C@H](C)[C@H](NC(=O)[C@H](Cc1ccc(O)cc1)NC(=O)[C@@H](NC(=O)[C@@H]1CCCN1C(=O)[C@H](CCCNC(=N)N)NC(=O)[C@H](CCCNC(=O)CNC(=O)[C@@H](N)CO)NC(=O)[C@H](CC(N)=O)NC(=O)[C@H](CCCN)N=C(N(C)C)N(C)C)C(C)C)C(=O)N1CCC[C@H]1C(=O)N[C@@H](CCCNC(=N)N)C(=O)N1CCC[C@H]1C(=O)N[C@@H](CCCNC(=N)N)C(=O)N1CCC[C@H]1C(=O)N1CCC[C@H]1C(=O)N[C@@H](Cc1c[nH]cn1)C(=O)N1CCC[C@H]1C(=O)N[C@@H](CCCNC(=N)N)C(=O)N[C@@H](CC(C)C)C(=O)O [Api 301 (SG)] ({Orn(α-tetramethylguanidino)}-N[Orn]([Gly-Ser])RPVYIPRPRPPHPRL-OH) |  | 1.6 (≈ 3.9 µg/mL) | remaining at 4 h, 15 µg/ml ([5]; mouse, pure (100%) mouse serum): 60%; Effect of peptide linker or remaining linker residues on the MIC [2]: does not increase the MIC or increases it only insignificantly
12 | Guan-ONO(sPEG^750-GARSG)RPVYIPRPRPPHPRL-OH ({Guan″}-[Orn]N[Orn]RPVYIPRPRPPHPRL-OH; not fully specified (residue 3)) [Api 301 (sPEG^750-GARSG)] | 0.27 | 2.9 | Half-life (t1/2) in serum [3]: 0.75 h
13 | tPEG^750-GAR-VDKPPYLPRPRPPROIYNO-NH2 (tPEG750-GARVDKPPYLPRPRPPR[Orn]IYN[Orn]-NH2; not fully specified; printed as tPEG^750-GAR-VDKPPYLPRPRPPROIYNO-NH2) [tPEG^750-GAR-Onc 72] |  | 24.3 | uncleaved peptide remaining after the indicated time (instead of half-life) ([5]; pure mouse serum, 6 h): 55%
14 | Guan-OO(tPEG^5000-GARSG)NRPVYIPRPRPPHPRL-OH (Guan-[Orn][Orn]NRPVYIPRPRPPHPRL-OH; not fully specified (residue 2)) [Api 300 (tPEG^5000-GARSG)] | 0.44 | 17.4 | uncleaved peptide remaining after the indicated time (instead of half-life) [3]: 69%
15 | CC[C@H](C)[C@H](NC(=O)[C@H](Cc1ccc(O)cc1)NC(=O)[C@@H](NC(=O)[C@@H]1CCCN1C(=O)[C@H](CCCNC(=N)N)NC(=O)[C@H](CC(N)=O)NC(=O)[C@H](CCCNC(=O)CNC(=O)[C@@H](N)CO)NC(=O)[C@H](CCCN)N=C(N(C)C)N(C)C)C(C)C)C(=O)N1CCC[C@H]1C(=O)N[C@@H](CCCNC(=N)N)C(=O)N1CCC[C@H]1C(=O)N[C@@H](CCCNC(=N)N)C(=O)N1CCC[C@H]1C(=O)N1CCC[C@H]1C(=O)N[C@@H](Cc1c[nH]cn1)C(=O)N1CCC[C@H]1C(=O)N[C@@H](CCCNC(=N)N)C(=O)N[C@@H](CC(C)C)C(=O)O [Api 300 (SG)] ({Orn(α-tetramethylguanidino)}-[Orn]([Gly-Ser])NRPVYIPRPRPPHPRL-OH) | 0.21 | 0.8 (≈ 1.95 µg/mL) | half-life at 15 µg/ml ([5]; mouse, pure (100%) mouse serum): 4 h; Effect of peptide linker or remaining linker residues on the MIC [2]: does not increase the MIC or increases it only insignificantly
16 | sPEG^750-GAR-VDKPPYLPRPRPHypRHypTleYNO-NH2 (sPEG750-GARVDKPPYLPRPRP[Hyp]R[Hyp][Tle]YN[Orn]-NH2) [sPEG^750-GAR-Onc 110] | 9.2 | 24.3 | uncleaved peptide remaining after the indicated time (instead of half-life) [3]: 73%
